Laboratory results taken from US10124004B2, “Pyrido[3,4-d]pyrimidine derivative and pharmaceutically acceptable salt thereof” (Teijin Pharma Limited, priority 2015, dated 2018).

Molecular target: T1, CDK4/cyclin D3 (Homo sapiens, UniProt P11802)
T1 construct: purchased Carna Biosciences, Inc. QS S Assist CDK4/Cyclin D3_FP Kit
Assay: Human CDK4/cyclin D3 inhibitory activity (QS S Assist CDK4/Cyclin D3_FP Kit, IMAP fluorescence polarization)
Assay type: biochemical
Conditions: Human CDK4/cyclin D3 inhibitory activity; read-out: CDK4 Activity symbol
Procedure: Human CDK4/Cyclin D3 Inhibitory Activity
Each compound was analyzed for CDK4/cyclin D3 inhibitory activity with an assay kit (QS S Assist CDK4/Cyclin D3_FP Kit, available from Carna Biosciences, Inc.). This assay kit determines kinase activity on the basis of the IMAP technology by Molecular Devices. Specifically, the kinase activity is determined through quantification of a variation in fluorescent polarization caused by binding of a kinase-phosphorylated fluorescent substance to an IMAP-binding reagent.
Each solution was prepared with the 10× assay buffer attached to the kit or a separately prepared assay buffer having the same composition as the assay buffer attached to the kit. An assay buffer was prepared by 10-fold dilution of the 10× assay buffer with distilled water. The assay buffer contains 20 mM HEPES (pH 7.4), 0.01% Tween20, and 2 mM dithiothreitol. A test compound solution was prepared by dilution of the test compound with dimethyl sulfoxide (DMSO) to a concentration 100 times higher than the final concentration and then 25-fold dilution with the assay buffer to a concentration four times higher than the final concentration. An ATP/substrate/Metal solution was prepared by five-fold dilution of the 5×ATP/substrate/Metal solution attached to the kit with the assay buffer. An enzyme solution was prepared by dilution of the CDK4/cyclin D3 attached to the kit with the assay buffer to a concentration twice higher than the final concentration (final concentration of CDK4/cyclin D3:12.5 to 25 ng/well). A detection reagent was prepared by five-fold dilution of each of 5× IMAP-binding buffer A and 5×IMAP-binding buffer B with distilled water, mixing of IMAP-binding buffer A with IMAP-binding buffer B at a ratio of 85:15, and 400-fold dilution of the IMAP-binding reagent with the mixed buffer.
The test compound solution (5 μL/well) and the ATP/substrate/Metal solution (5 μL/well) were added to a 384-well plate, and the enzyme solution or the assay buffer (10 μL/well) was added to the plate (total amount of the reaction mixture: 20 μL/well) for initiation of enzymatic reaction. […] The reaction was performed at room temperature for 45 minutes, and the detection reagent (60 μL/well) was then added to the plate, followed by further reaction for 30 minutes at room temperature under light shielding conditions. Subsequently, fluorescent polarization was determined with a microplate reader at an excitation wavelength of 485 nm and an emission wavelength of 535 nm.
The percent inhibition of enzyme activity was calculated for each test compound (note: enzyme activity=100% in the case of addition of the enzyme solution and addition of DMSO instead of the test compound solution, whereas enzyme activity=0% in the case of addition of the assay buffer instead of the enzyme solution, and addition of DMSO instead of the test compound solution). The percent inhibition of enzyme activity was fitted to a dose-response curve, to determine a 50% inhibitory concentration against CDK4/cyclin D3.
In each table, “+++” corresponds to IC50<10 nM, “++” 10 nM≤IC50<100 nM, and “+” 100 nM≤IC50.

T1 sequence (P11802 whole entry): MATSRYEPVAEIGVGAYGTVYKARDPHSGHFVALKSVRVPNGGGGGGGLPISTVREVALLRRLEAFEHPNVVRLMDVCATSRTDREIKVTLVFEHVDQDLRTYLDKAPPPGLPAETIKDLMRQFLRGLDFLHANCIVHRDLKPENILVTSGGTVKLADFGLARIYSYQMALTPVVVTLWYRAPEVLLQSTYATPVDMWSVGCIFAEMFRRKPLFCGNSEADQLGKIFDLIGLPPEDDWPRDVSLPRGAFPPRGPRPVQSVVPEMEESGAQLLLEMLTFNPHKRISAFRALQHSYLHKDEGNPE
T1 sequence (P30281 whole entry partner): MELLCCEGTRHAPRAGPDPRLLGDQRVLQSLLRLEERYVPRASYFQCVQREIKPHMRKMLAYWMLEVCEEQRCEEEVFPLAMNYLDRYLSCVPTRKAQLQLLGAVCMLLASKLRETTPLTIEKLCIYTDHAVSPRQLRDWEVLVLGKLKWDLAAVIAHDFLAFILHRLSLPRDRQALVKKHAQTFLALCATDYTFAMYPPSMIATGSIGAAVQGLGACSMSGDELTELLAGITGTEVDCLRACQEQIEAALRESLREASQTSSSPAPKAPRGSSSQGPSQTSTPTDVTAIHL

Structure (SMILES) | IC50 [nM]
COC(C)c1cc2cnc(Nc3ccc(CN4CCNCC4)cn3)nc2c(N[C@H]2CC[C@](C)(C(=O)O)CC2)n1 (stereo partly drawn) [Compound 436] | 10 to 100
COC(C)c1cc2cnc(Nc3ccc(CN4CCNCC4)cn3)nc2c(N[C@H]2CC[C@@](C)(C(=O)O)CC2)n1 (stereo partly drawn) [Compound 437] | ≥ 100
CC1(C)NCCN(c2ccc(Nc3ncc4cc(C(F)F)nc(NC5CCOCC5)c4n3)nc2)C1=O [Compound 439] | 10 to 100
C[C@@H](O)c1cc2cnc(Nc3ccc(N4CCNC(C)(C)C4=O)cn3)nc2c(NC2CCOCC2)n1 [Compound 441] | ≥ 100
CC1(C)NCCN(c2ccc(Nc3ncc4cc(C(F)F)nc(N[C@H]5CC[C@H](C(=O)O)CC5)c4n3)nc2)C1=O [Compound 442] | ≥ 100
CC1(C)NCCN(c2ccc(Nc3ncc4cc(C(F)F)nc(N[C@H]5CC[C@H](O)CC5)c4n3)nc2)C1=O [Compound 443] | 10 to 100
COC(C)c1cc2cnc(Nc3ccc(CN4CCNCC4)cn3)nc2c(NC2CCCCCC2)n1 (stereo not drawn) [Compound 445] | < 10
COC(C)c1cc2cnc(Nc3ccc(CN4CCNCC4)cn3)nc2c(Nc2ccc(F)cc2)n1 (stereo not drawn) [Compound 446] | 10 to 100
COC(C)c1cc2cnc(Nc3ccc(CN4CCNCC4)cn3)nc2c(Nc2cccc(F)c2)n1 (stereo not drawn) [Compound 447] | 10 to 100
COC(C)c1cc2cnc(Nc3ccc(CN4CCNCC4)cn3)nc2c(Nc2ccc(C(=O)O)cc2)n1 (stereo not drawn) [Compound 448] | ≥ 100
COC(C)c1cc2cnc(Nc3ccc(CN4CCNCC4)cn3)nc2c(Nc2cccc(C(=O)O)c2)n1 (stereo not drawn) [Compound 449] | ≥ 100
COc1ccc(Nc2nc(C(C)OC)cc3cnc(Nc4ccc(CN5CCNCC5)cn4)nc23)cc1 (stereo not drawn) [Compound 450] | < 10
CNC1CCN(c2ccc(Nc3ncc4cc(C(C)OC)nc(NC(C)C)c4n3)nn2)CC1 (stereo not drawn) [Compound 452] | < 10
COC(C)c1cc2cnc(Nc3ccc(CN4CCNCC4)cn3)nc2c(NC23CC4CC(CC(O)(C4)C2)C3)n1 (stereo not drawn) [Compound 455] | < 10
CNC1(COc2ccc(Nc3ncc4cc(C(C)OC)nc(NC(C)C)c4n3)nc2)CC1 (stereo not drawn) [Compound 461] | 10 to 100
COC(C)c1cc2cnc(Nc3ccc(CN4CCNCC4)cn3)nc2c(NCC2CC(F)(F)C2)n1 (stereo not drawn) [Compound 465] | < 10
COC(C)c1cc2cnc(Nc3ccc(CN4CCNCC4)cn3)nc2c(NC2CCCOCC2)n1 (stereo not drawn) [Compound 468] | < 10
CO[C@H](C)c1cc2cnc(Nc3ccc(N4CCC(F)CC4)cn3)nc2c(NC(C)C)n1 [Compound 469] | 10 to 100
CO[C@H](C)c1cc2cnc(Nc3ccc(N4CCC(F)(F)CC4)cn3)nc2c(NC(C)C)n1 [Compound 470] | ≥ 100
CO[C@H](C)c1cc2cnc(Nc3ccc(OC4CCNCC4(F)F)cn3)nc2c(NC(C)C)n1 (stereo partly drawn) [Compound 473] | 10 to 100

Structure (SMILES) | IC50 [nM]
COC(C)c1cc2cnc(Nc3ccc(CN4CCNCC4)cn3)nc2c(NC23CCC(C(=O)O)(CC2)CC3)n1 (stereo not drawn) [Compound 475] | 10 to 100
CO[C@H](C)c1cc2cnc(Nc3ccc(N4CC5(CCN5)C4)cn3)nc2c(NC(C)C)n1 [Compound 478] | < 10
CO[C@H](C)c1cc2cnc(Nc3ccc(N4CC5(CCNC5)C4)cn3)nc2c(NC(C)C)n1 [Compound 479] | < 10
CO[C@H](C)c1cc2cnc(Nc3ccc(N4CC5(CCC5)C4)cn3)nc2c(NC(C)C)n1 [Compound 480] | 10 to 100
CO[C@H](C)c1cc2cnc(Nc3ccc(N4CCC5(CC4)COC5)cn3)nc2c(NC(C)C)n1 [Compound 481] | 10 to 100
CO[C@H](C)c1cc2cnc(Nc3ccc(OC4CC5(CNC5)C4)cn3)nc2c(NC(C)C)n1 [Compound 483] | < 10
CO[C@H](C)c1cc2cnc(Nc3ccc(N4CC5(CC(N)C5)C4)cn3)nc2c(NC(C)C)n1 [Compound 484] | < 10
CO[C@H](C)c1cc2cnc(Nc3ccc(N4CC5(CCCN5)C4)cn3)nc2c(NC(C)C)n1 [Compound 486] | < 10
CO[C@H](C)c1cc2cnc(Nc3ccc(N4CCC(N(C)C)CC4)nn3)nc2c(NC(C)C)n1 [Compound 489] | < 10
CC(C)Nc1nc([C@@H](C)O)cc2cnc(Nc3ccc(N4CCCN(C)CC4)nn3)nc12 [Compound 490] | < 10
CO[C@H](C)c1cc2cnc(Nc3ccc(CN4CCCNCC4)cn3)nc2c(NC(C)C)n1 [Compound 493] | < 10
CO[C@H](C)c1cc2cnc(Nc3ccc(N4CCCNCC4)nn3)nc2c(NC(C)C)n1 [Compound 495] | < 10
CC(C)Nc1nc([C@@H](C)O)cc2cnc(Nc3ccc(N4CCCNCC4)nn3)nc12 [Compound 496] | < 10
CO[C@H](C)c1cc2cnc(Nc3ccc(N4CCNC4=O)cn3)nc2c(NC(C)C)n1 [Compound 498] | < 10
CO[C@H](C)c1cc2cnc(Nc3ccc(N4C5CCC4CNC5)cn3)nc2c(NC(C)C)n1 [Compound 500] | < 10
CO[C@H](C)c1cc2cnc(Nc3ccc(N4C5CCC4CC(N)C5)cn3)nc2c(NC(C)C)n1 (stereo partly drawn) [Compound 502] | < 10
CO[C@H](C)c1cc2cnc(Nc3ccc(OC4CC5CCC(C4)N5)cn3)nc2c(NC(C)C)n1 (stereo partly drawn) [Compound 504] | < 10
CO[C@H](C)c1cc2cnc(Nc3ccc(OCC4(N)CCC4)cn3)nc2c(NC(C)C)n1 [Compound 505] | 10 to 100
CC(C)Nc1nc([C@@H](C)O)cc2cnc(Nc3ccc(N4CCN[C@H](C)C4=O)cn3)nc12 [Compound 506] | 10 to 100

Continued, values first:

IC50 [nM] | Structure (SMILES)
< 10 | CC(C)Nc1nc(C(F)F)cc2cnc(Nc3ccc(N4CCNC(C)(C)C4=O)cn3)nc12 [Compound 438]
10 to 100 | CC(C)Nc1nc([C@@H](C)O)cc2cnc(Nc3ccc(N4CCNC(C)(C)C4=O)cn3)nc12 [Compound 440]
≥ 100 | CO[C@H](C)c1cc2cnc(Nc3ccc(N4CCNC(C)(C)C4=O)cn3)nc2c(NC(C)C)n1 [Compound 444]
< 10 | COc1cccc(Nc2nc(C(C)OC)cc3cnc(Nc4ccc(CN5CCNCC5)cn4)nc23)c1 (stereo not drawn) [Compound 451]
< 10 | COC(C)c1cc2cnc(Nc3ccc(N4CCCNCC4)cn3)nc2c(NC(C)C)n1 (stereo not drawn) [Compound 453]
< 10 | COC(C)c1cc2cnc(Nc3ccc(CN4CCNCC4)cn3)nc2c(NCC2(C)CC(O)CC(C)(C)C2)n1 (stereo not drawn) [Compound 454]
< 10 | COC(C)c1cc2cnc(Nc3ccc(OCC4(N)CC4)cn3)nc2c(NC(C)C)n1 (stereo not drawn) [Compound 457]
< 10 | COC(C)c1cc2cnc(Nc3ccc(OCC(C)(C)N)cn3)nc2c(NC(C)C)n1 (stereo not drawn) [Compound 458]
10 to 100 | CO[C@H](C)c1cc2cnc(Nc3ccc(N4CCN[C@H](C)C4=O)cn3)nc2c(NC(C)C)n1 [Compound 462]
< 10 | COC(C)c1cc2cnc(Nc3ccc(CN4CCNCC4)cn3)nc2c(N[C@H]2CC[C@H](OC(C)C)CC2)n1 (stereo partly drawn) [Compound 464]
10 to 100 | CO[C@H](C)c1cc2cnc(Nc3ccc(OCCN(C)C)nn3)nc2c(NC(C)C)n1 [Compound 471]
10 to 100 | CO[C@H](C)c1cc2cnc(Nc3ccc(CN4CCC(F)CC4)cn3)nc2c(NC(C)C)n1 [Compound 472]
< 10 | CO[C@H](C)c1cc2cnc(Nc3ccc(N4CC5(CNC5)C4)cn3)nc2c(NC(C)C)n1 [Compound 476]
< 10 | CO[C@H](C)c1cc2cnc(Nc3ccc(N4CC5(CCCNC5)C4)cn3)nc2c(NC(C)C)n1 [Compound 477]
< 10 | CO[C@H](C)c1cc2cnc(Nc3ccc(N4CC5(CCNCC5)C4)cn3)nc2c(NC(C)C)n1 [Compound 482]
< 10 | CO[C@H](C)c1cc2cnc(Nc3ccc(NC4CC5(CNC5)C4)cn3)nc2c(NC(C)C)n1 [Compound 485]
< 10 | CO[C@H](C)c1cc2cnc(Nc3ccc(OCC(F)CN(C)C)cn3)nc2c(NC(C)C)n1 (stereo partly drawn) [Compound 487]
< 10 | CO[C@H](C)c1cc2cnc(Nc3ccc(N4CCCN(C)CC4)nn3)nc2c(NC(C)C)n1 [Compound 488]
< 10 | CO[C@H](C)c1cc2cnc(Nc3ccc(CN4CCC(O)CC4)cn3)nc2c(NC(C)C)n1 [Compound 494]
< 10 | CNC1C2CCC1CN(c1ccc(Nc3ncc4cc([C@@H](C)OC)nc(NC(C)C)c4n3)nc1)C2 (stereo partly drawn) [Compound 503]
10 to 100 | COC(C)c1cc2cnc(Nc3ccc(CN4CCNCC4)cn3)nc2c(NC2CC3(C2)CC(C(=O)O)C3)n1 (stereo not drawn) [Compound 513]
